{"source": "patent US20210196720A1", "about": "(UROVANT SCIENCES GMBH, priority 2018, published 2021)", "experiment": "Single rising oral dose Phase 1 PK, healthy adults (young males unless stated)", "format": "in vivo, human", "conditions": "for AUC(0-inf) / Cmax / AUC(0-t) / half-life: human, plasma, oral; for AUC(0-t): read-out: AUC0-24", "experimental": "The steady state AUC geometric mean accumulation ratios were ˜2 in young male subjects and ˜2.8 in elderly subjects (male and female).\nAll subjects were healthy adults. […] Systemic exposures were greater than dose proportional up to 600 mg.\nAlthough exposures were similar in middle-aged males when compared to young males, plasma concentrations were higher in elderly compared to middle-aged and young subjects. […] Furthermore, the steady state AUC geometric mean accumulation ratios were ˜2 in young males and ˜2.8 in the elderly.", "key": {"[1]": {"conditions": "both sexes, 50 mg, single 50 mg, elderly male and female"}, "[2]": {"conditions": "male, 10 mg, single 10 mg, Japanese"}, "[3]": {"conditions": "male, 50 mg, single 50 mg, Japanese, fasted"}, "[4]": {"conditions": "male, 50 mg, single 50 mg, fasted"}, "[5]": {"conditions": "male, 100 mg, single 100 mg, Japanese"}, "[6]": {"conditions": "male, 200 mg, single 200 mg, Japanese"}, "[7]": {"conditions": "male, 300 mg, single 300 mg, Japanese"}}, "note": "Several values for one entry are separate records, joined by “and”; a condition that tells them apart may be missing. Identical values can stand only once. Like-named read-outs stand apart in the source and are kept apart here."}
{"compound": "O=C(Nc1ccc(C[C@@H]2CC[C@H]([C@H](O)c3ccccc3)N2)cc1)[C@@H]1CCc2nccc(=O)n21", "note": "[Vibegron, (6S)-N-[4-[[(2S,5R)-5-[(R)-hydroxy(phenyl)methyl]pyrrolidin-2-yl]methyl]phenyl]-4-oxo-7,8-dihydro-6H-pyrrolo[1,2-a]pyrimidine-6-carboxamide]", "values": [{"measurement": "AUC(0-inf)", "setting": "[1]", "result": "951 ± 300", "unit": "ng·h/mL"}, {"measurement": "Cmax", "setting": "[1]", "result": "50.2 ± 23.6", "unit": "ng/mL"}, {"measurement": "AUC(0-t)", "setting": "[1]", "result": "314 ± 119", "unit": "ng·h/mL"}, {"measurement": "half-life", "setting": "both sexes, 50 mg, single 50 mg, elderly male and female, read-out: t1/2 (converted)", "result": 92, "unit": "h"}, {"measurement": "Cmax", "setting": "male, 2 mg, single 2 mg", "result": "0.28 ± 0.02", "unit": "ng/mL"}, {"measurement": "AUC(0-t)", "setting": "male, 2 mg, single 2 mg", "result": "0.8 ± 0.33", "unit": "ng·h/mL"}, {"measurement": "Cmax", "setting": "male, 5 mg, single 5 mg", "result": "0.79 ± 0.3", "unit": "ng/mL"}, {"measurement": "AUC(0-t)", "setting": "male, 5 mg, single 5 mg", "result": "8.31 ± 4.8", "unit": "ng·h/mL"}, {"measurement": "AUC(0-inf)", "setting": "male, 10 mg, single 10 mg", "result": "70.7 ± 34.9", "unit": "ng·h/mL"}, {"measurement": "Cmax", "setting": "male, 10 mg, single 10 mg", "result": "4.76 ± 4.58", "unit": "ng/mL"}, {"measurement": "AUC(0-inf)", "setting": "[2]", "result": "98.7 ± 27.3", "unit": "ng·h/mL"}, {"measurement": "Cmax", "setting": "[2]", "result": "3.34 ± 1.97", "unit": "ng/mL"}, {"measurement": "AUC(0-t)", "setting": "[2]", "result": "31 ± 9.33", "unit": "ng·h/mL"}, {"measurement": "half-life", "setting": "male, 10 mg, single 10 mg, Japanese, read-out: t1/2 (converted)", "result": "57.6 ± 39", "unit": "h"}, {"measurement": "AUC(0-t)", "setting": "male, 10 mg, single 10 mg", "result": "30 ± 12.6", "unit": "ng·h/mL"}, {"measurement": "half-life", "setting": "male, 10 mg, single 10 mg, read-out: t1/2 (converted)", "result": "43.2 ± 13", "unit": "h"}, {"measurement": "AUC(0-inf)", "setting": "male, 20 mg, single 20 mg", "result": "121 ± 48.9", "unit": "ng·h/mL"}, {"measurement": "Cmax", "setting": "male, 20 mg, single 20 mg", "result": "5.25 ± 4.25", "unit": "ng/mL"}, {"measurement": "AUC(0-t)", "setting": "male, 20 mg, single 20 mg", "result": "40 ± 21.1", "unit": "ng·h/mL"}, {"measurement": "half-life", "setting": "male, 20 mg, single 20 mg, read-out: t1/2 (converted)", "result": "64.2 ± 12.6", "unit": "h"}, {"measurement": "AUC(0-inf)", "setting": "[3]", "result": "885 ± 241", "unit": "ng·h/mL"}, {"measurement": "Cmax", "setting": "[3]", "result": "62.2 ± 20.4", "unit": "ng/mL"}, {"measurement": "AUC(0-t)", "setting": "[3]", "result": "385 ± 136", "unit": "ng·h/mL"}, {"measurement": "half-life", "setting": "male, 50 mg, single 50 mg, Japanese, read-out: t1/2 (converted)", "result": "64.4 ± 8.7", "unit": "h"}, {"measurement": "AUC(0-inf)", "setting": "[4]", "result": "551 ± 262", "unit": "ng·h/mL"}, {"measurement": "Cmax", "setting": "[4]", "result": "31.7 ± 35", "unit": "ng/mL"}, {"measurement": "AUC(0-t)", "setting": "[4]", "result": "219 ± 123", "unit": "ng·h/mL"}, {"measurement": "half-life", "setting": "male, 50 mg, single 50 mg, read-out: t1/2 (converted)", "result": 52, "unit": "h"}, {"measurement": "AUC(0-inf)", "setting": "male, 100 mg, single 100 mg", "result": "1890 ± 698", "unit": "ng·h/mL"}, {"measurement": "Cmax", "setting": "male, 100 mg, single 100 mg", "result": "142 ± 108", "unit": "ng/mL"}, {"measurement": "AUC(0-inf)", "setting": "[5]", "result": "1770 ± 418", "unit": "ng·h/mL"}, {"measurement": "Cmax", "setting": "[5]", "result": "190 ± 123", "unit": "ng/mL"}, {"measurement": "AUC(0-t)", "setting": "[5]", "result": "920 ± 300", "unit": "ng·h/mL"}, {"measurement": "half-life", "setting": "male, 100 mg, single 100 mg, Japanese, read-out: t1/2 (converted)", "result": "57.6 ± 12", "unit": "h"}, {"measurement": "AUC(0-t)", "setting": "male, 100 mg, single 100 mg", "result": "845 ± 401", "unit": "ng·h/mL"}, {"measurement": "half-life", "setting": "male, 100 mg, single 100 mg, read-out: t1/2 (converted)", "result": "72.8 ± 10.8", "unit": "h"}, {"measurement": "AUC(0-inf)", "setting": "male, 150 mg, single 150 mg", "result": "2270 ± 911", "unit": "ng·h/mL"}, {"measurement": "Cmax", "setting": "male, 150 mg, single 150 mg", "result": "195 ± 185", "unit": "ng/mL"}, {"measurement": "AUC(0-t)", "setting": "male, 150 mg, single 150 mg", "result": "1050 ± 551", "unit": "ng·h/mL"}, {"measurement": "half-life", "setting": "male, 150 mg, single 150 mg, read-out: t1/2 (converted)", "result": "60.5 ± 10.5", "unit": "h"}, {"measurement": "AUC(0-inf)", "setting": "male, 200 mg, single 200 mg", "result": "3630 ± 1110", "unit": "ng·h/mL"}, {"measurement": "Cmax", "setting": "male, 200 mg, single 200 mg", "result": "274 ± 138", "unit": "ng/mL"}, {"measurement": "AUC(0-inf)", "setting": "[6]", "result": "5200 ± 791", "unit": "ng·h/mL"}, {"measurement": "Cmax", "setting": "[6]", "result": "516 ± 200", "unit": "ng/mL"}, {"measurement": "AUC(0-t)", "setting": "[6]", "result": "3090 ± 569", "unit": "ng·h/mL"}, {"measurement": "half-life", "setting": "male, 200 mg, single 200 mg, Japanese, read-out: t1/2 (converted)", "result": "58.4 ± 9", "unit": "h"}, {"measurement": "AUC(0-t)", "setting": "male, 200 mg, single 200 mg", "result": "1740 ± 748", "unit": "ng·h/mL"}, {"measurement": "half-life", "setting": "male, 200 mg, single 200 mg, read-out: t1/2 (converted)", "result": "75.3 ± 9.1", "unit": "h"}, {"measurement": "AUC(0-inf)", "setting": "male, 300 mg, single 300 mg", "result": "7380 ± 1410", "unit": "ng·h/mL"}, {"measurement": "Cmax", "setting": "male, 300 mg, single 300 mg", "result": "618 ± 231", "unit": "ng/mL"}, {"measurement": "AUC(0-inf)", "setting": "[7]", "result": "6270 ± 1570", "unit": "ng·h/mL"}, {"measurement": "Cmax", "setting": "[7]", "result": "733 ± 210", "unit": "ng/mL"}, {"measurement": "AUC(0-t)", "setting": "[7]", "result": "4050 ± 1240", "unit": "ng·h/mL"}, {"measurement": "half-life", "setting": "male, 300 mg, single 300 mg, Japanese, read-out: t1/2 (converted)", "result": "59.7 ± 9.2", "unit": "h"}, {"measurement": "AUC(0-t)", "setting": "male, 300 mg, single 300 mg", "result": "4430 ± 996", "unit": "ng·h/mL"}, {"measurement": "half-life", "setting": "male, 300 mg, single 300 mg, read-out: t1/2 (converted)", "result": "63.4 ± 3", "unit": "h"}, {"measurement": "AUC(0-inf)", "setting": "male, 450 mg, single 450 mg", "result": "9160 ± 1850", "unit": "ng·h/mL"}, {"measurement": "Cmax", "setting": "male, 450 mg, single 450 mg", "result": "645 ± 165", "unit": "ng/mL"}, {"measurement": "AUC(0-t)", "setting": "male, 450 mg, single 450 mg", "result": "5510 ± 1440", "unit": "ng·h/mL"}, {"measurement": "half-life", "setting": "male, 450 mg, single 450 mg, read-out: t1/2 (converted)", "result": "60 ± 9.4", "unit": "h"}, {"measurement": "AUC(0-inf)", "setting": "male, 600 mg, single 600 mg", "result": "15500 ± 3450", "unit": "ng·h/mL"}, {"measurement": "Cmax", "setting": "male, 600 mg, single 600 mg", "result": "1330 ± 529", "unit": "ng/mL"}, {"measurement": "AUC(0-t)", "setting": "male, 600 mg, single 600 mg", "result": "10900 ± 2770", "unit": "ng·h/mL"}, {"measurement": "half-life", "setting": "male, 600 mg, single 600 mg, read-out: t1/2 (converted)", "result": "60.5 ± 5.2", "unit": "h"}, {"measurement": "half-life", "setting": "male, 10 to 600 mg, healthy young males, read-out: terminal elimination t1/2", "result": "43 to 75", "unit": "h"}, {"measurement": "half-life", "setting": "male, Japanese subjects, read-out: harmonic mean apparent terminal t1/2", "result": "58 to 71", "unit": "h"}, {"measurement": "AUC0-inf higher in elderly than young males", "setting": "single 50 mg", "result": "~70", "unit": "%"}, {"measurement": "Cmax higher in elderly than young males", "setting": "single 50 mg", "result": 60, "unit": "%"}, {"measurement": "t1/2", "setting": "single 50 mg", "result": "52 h and 52.0 ± 7.8 h"}, {"measurement": "t1/2", "setting": "single 50 mg, elderly male and female", "result": "92 h and 92.1 ± 15.9 h"}, {"measurement": "exposure increase, Japanese vs non-Japanese young males", "setting": "single dose", "result": "< 2", "unit": "fold"}]}
